Source: patent publication US10807986B2, “Fused pyrimidine compound or salt thereof” (TAIHO PHARMACEUTICAL CO., LTD., priority 2016, dated 2020)

How the values were obtained:
[1] = test system: TT cells (human thyroid cancer cell line with RET activating mutation); assay: In vivo antitumor effect, mice subcutaneously implanted with TT cells; design: species or system BALB/cA Jcl-nu/nu male mice
Description: Human thyroid cancer cell lines (TT) were subcutaneously implanted into the right frank of 6- to 7-week-old BALB/cA Jcl-nu/nu male mice. After about 2 to 3 weeks from the cell implantation, the length (mm) and the width (mm) of tumors found in mouse bodies were measured. […] The day on which the mice were divided into groups was determined to be the “grouping day” (day 0 or 1).
A control group was administered a solvent (0.5% HPMC/0.1N HCl).
To determine the index of the antitumor effect, TV of each drug-administrated group was measured on day 15, and the tumor volume on day 15 relative to the tumor volume on the grouping day (day 0 or 1) (relative tumor volume: RTV) and T/C (%) were calculated from the following equations, and the antitumor effect was evaluated. […] TV (mm^3)=(length×width^2)/2 RTV=(TV on day 15)/(TV on day 0 or day 1) T/C(%)=(the mean RTV of a test compound treatment group)/(the mean RTV of the control group)×100

[2] = Evaluation of stability in liver microsome; conditions: mouse liver microsome 0.25 mg/mL, test compound 1 μM, 37° C., 30 minutes
[3] = 100 mg/kg/day oral for 14 days, day 15, Table 54

Row | SMILES | Remaining (%) [2] [%] | further results
1 | COCc1ccc(NC(=O)c2c(C#CCN3CCOCC3)n(C3(C)CC3)c3ncnc(N)c23)cc1 [Example 85, 4-amino-N-[4-(methoxymethyl)phenyl]-7-(1-methylcyclopropyl)-6-(3-morpholinoprop-1-yn-1-yl)-7H-pyrrolo[2,3-d]pyrimidine-5-carboxamide] | – | T/C (%) [1, 3]: 23%; TV (mm^3) Day 15 Mean ± SE [1, 3]: 139.42 mm^3; RTV Day 15 Mean ± SE ([1]; 100 mg/kg/day oral for 14 days, day 15 relative to day 0, Table 54): 0.87; TV (mm^3) Day 0 Mean ± SE ([1]; 100 mg/kg/day oral, grouping day (day 0), Table 54): 169.45 mm^3
2 | COCc1ccc(NC(=O)c2c(C#Cc3ccccc3)n(C3(C)CC3)c3ncnc(N)c23)cc1 [Example 162, 4-amino-N-(4-(methoxymethyl)phenyl)-7-(1-methylcyclopropyl)-6-(phenylethynyl)-7H-pyrrolo[2,3-d]pyrimidine-5-carboxamide] | 76 | –
3 | COCc1ccc(NC(=O)c2c(OC[C@@H]3CCCO3)n(C3(C)CC3)c3ncnc(N)c23)cc1 [Example 97, (S)-4-amino-N-(4-(methoxymethyl)phenyl)-7-(1-methylcyclopropyl)-6-((tetrahydrofuran-2-yl)methoxy)-7H-pyrrolo[2,3-d]pyrimidine-5-carboxamide] | 70 | –
4 | COCc1ccc(NC(=O)c2c(OCC3CCCO3)n(C3(C)CC3)c3ncnc(N)c23)cc1 (centres unmarked) [Example 135, 4-amino-N-(4-(methoxymethyl)phenyl)-7-(1-methylcyclopropyl)-6-((tetrahydrofuran-2-yl)methoxy)-7H-pyrrolo[2,3-d]pyrimidine-5-carboxamide] | 67 | –
5 | COCc1ccc(NC(=O)c2cn(C3(C)CC3)c3ncnc(N)c23)cc1F [Example 48, 4-amino-N-(3-fluoro-4-(methoxymethyl)phenyl)-7-(1-methylcyclopropyl)-7H-pyrrolo[2,3-d]pyrimidine-5-carboxamide] | 58 | –
6 | COCc1ccc(NC(=O)c2cn(C3(C(F)F)CC3)c3ncnc(N)c23)cc1 [Example 46, 4-amino-7-(1-(difluoromethyl)cyclopropyl)-N-(4-(methoxymethyl)phenyl)-7H-pyrrolo[2,3-d]pyrimidine-5-carboxamide] | 65 | –
7 | COCc1ccc(NC(=O)c2c(C#CCC(C)O)n(C3(C)CC3)c3ncnc(N)c23)cc1 (centres unmarked) [Example 188, 4-amino-6-(4-hydroxypent-1-yn-1-yl)-N-(4-(methoxymethyl)phenyl)-7-(1-methylcyclopropyl)-7H-pyrrolo[2,3-d]pyrimidine-5-carboxamide] | 68 | –
8 | COCc1ccc(NC(=O)c2cn(C3(CF)CC3)c3ncnc(N)c23)cc1 [Example 45, 4-amino-7-(1-(fluoromethyl)cyclopropyl)-N-(4-(methoxymethyl)phenyl)-7H-pyrrolo[2,3-d]pyrimidine-5-carboxamide] | 66 | –
9 | COCc1ccc(NC(=O)c2c(C#CC3(O)CCOC3)n(C3(C)CC3)c3ncnc(N)c23)cc1 (centres unmarked) [Example 177, 4-amino-6-((3-hydroxytetrahydrofuran-3-yl)ethynyl)-N-(4-(methoxymethyl)phenyl)-7-(1-methylcyclopropyl)-7H-pyrrolo[2,3-d]pyrimidine-5-carboxamide] | 72 | –
10 | COCc1ccc(NC(=O)c2c(OCCN3CCCC3=O)n(C3(C)CC3)c3ncnc(N)c23)cc1 [Example 136, 4-amino-N-(4-(methoxymethyl)phenyl)-7-(1-methylcyclopropyl)-6-(2-(2-oxopyrrolidin-1-yl)ethoxy)-7H-pyrrolo[2,3-d]pyrimidine-5-carboxamide] | 78 | –
11 | COCc1ccc(NC(=O)c2c(OCC3CCCCO3)n(C3(C)CC3)c3ncnc(N)c23)cc1 (centres unmarked) [Example 102, 4-amino-N-(4-(methoxymethyl)phenyl)-7-(1-methylcyclopropyl)-6-((tetrahydro-2H-pyran-2-yl)methoxy)-7H-pyrrolo[2,3-d]pyrimidine-5-carboxamide] | 60 | –
12 | CCc1c(C(=O)Nc2ccc(COC)cc2)c2c(N)ncnc2n1C1(C)CC1 [Example 207, 4-amino-6-ethyl-N-(4-(methoxymethyl)phenyl)-7-(1-methylcyclopropyl)-7H-pyrrolo[2,3-d]pyrimidine-5-carboxamide] | 72 | –
13 | COCc1ccc(NC(=O)c2c(C#Cc3cn(C)nc3C)n(C3(C)CC3)c3ncnc(N)c23)cc1 [Example 181, 4-amino-6-((1,3-dimethyl-1H-pyrazol-4-yl)ethynyl)-N-(4-(methoxymethyl)phenyl)-7-(1-methylcyclopropyl)-7H-pyrrolo[2,3-d]pyrimidine-5-carboxamide] | 62 | –
14 | COCc1ccc(NC(=O)c2c(C#CCN3CCCC3)n(C3(C)CC3)c3ncnc(N)c23)cc1 [Example 88, 4-amino-N-[4-(methoxymethyl)phenyl]-7-(1-methylcyclopropyl)-6-(3-(pyrrolidin-1-yl)prop-1-yn-1-yl)-7H-pyrrolo[2,3-d]pyrimidine-5-carboxamide] | 59 | –
15 | COCc1ccc(NC(=O)c2c(C#CCC3(O)CCC3)n(C3(C)CC3)c3ncnc(N)c23)cc1 [Example 103, 4-amino-6-(3-(1-hydroxycyclobutyl)prop-1-yn-1-yl)-N-(4-(methoxymethyl)phenyl)-7-(1-methylcyclopropyl)-7H-pyrrolo[2,3-d]pyrimidine-5-carboxamide] | 60 | –
16 | COCc1ccc(NC(=O)c2cn(C(C)(C)C)c3ncnc(N)c23)cc1F [Example 30, 4-amino-7-(tert-butyl)-N-(3-fluoro-4-(methoxymethyl)phenyl)-7H-pyrrolo[2,3-d]pyrimidine-5-carboxamide] | 54 | –
17 | COCc1ccc(NC(=O)c2cn(C3(C)CC3)c3ncnc(N)c23)cc1 [Example 36, 4-amino-N-(4-(methoxymethyl)phenyl)-7-(1-methylcyclopropyl)-7H-pyrrolo[2,3-d]pyrimidine-5-carboxamide] | 73 | –
18 | COCc1ccc(NC(=O)c2c(C#Cc3ccc(N)nc3)n(C3(C)CC3)c3ncnc(N)c23)cc1 [Example 155, 4-amino-6-((6-aminopyridin-3-yl)ethynyl)-N-(4-(methoxymethyl)phenyl)-7-(1-methylcyclopropyl)-7H-pyrrolo[2,3-d]pyrimidine-5-carboxamide] | 64 | –
19 | COCc1ccc(NC(=O)c2c(-c3ccccc3)n(C3(C)CC3)c3ncnc(N)c23)cc1 [Example 154, 4-amino-N-(4-(methoxymethyl)phenyl)-7-(1-methylcyclopropyl)-6-phenyl-7H-pyrrolo[2,3-d]pyrimidine-5-carboxamide] | 50 | –
20 | COCc1ccc(NC(=O)c2c(C#CC3CCN(C)CC3)n(C3(C)CC3)c3ncnc(N)c23)cc1 [Example 183, 4-amino-N-(4-(methoxymethyl)phenyl)-7-(1-methylcyclopropyl)-6-((1-methylpiperidin-4-yl)ethynyl)-7H-pyrrolo[2,3-d]pyrimidine-5-carboxamide] | 77 | –
21 | COCc1ccc(NC(=O)c2c(C#Cc3cnc4cccnn34)n(C3(C)CC3)c3ncnc(N)c23)cc1 [Example 91, 4-amino-6-(imidazo[1,2-b]pyridazin-3-ylethynyl)-N-[4-(methoxymethyl)phenyl]-7-(1-methylcyclopropyl)-7H-pyrrolo[2,3-d]pyrimidine-5-carboxamide] | 65 | –
22 | COCc1ccc(NC(=O)c2c(C#Cc3cnn(C)c3C)n(C3(C)CC3)c3ncnc(N)c23)cc1 [Example 182, 4-amino-6-((1,5-dimethyl-1H-pyrazol-4-yl)ethynyl)-N-(4-(methoxymethyl)phenyl)-7-(1-methylcyclopropy1)-7H-pyrrolo[2,3-d]pyrimidine-5-carboxamide] | 61 | –
23 | COCc1ccc(NC(=O)c2c(-c3cccnc3)n(C3(C)CC3)c3ncnc(N)c23)cc1 [Example 61, 4-amino-N-(4-(methoxymethyl)phenyl)-7-(1-methylcyclopropyl)-6-(pyridin-3-yl)-7H-pyrrolo[2,3-d]pyrimidine-5-carboxamide] | 81 | –
24 | COCc1ccc(NC(=O)c2c(C#Cc3ccc(OC)cc3)n(C3(C)CC3)c3ncnc(N)c23)cc1 [Example 165, 4-amino-N-(4-(methoxymethyl)phenyl)-6-((4-methoxypheny)ethynyl)-7-(1-methylcyclopropyl)-7H-pyrrolo[2,3-d]pyrimidine-5-carboxamide] | 90 | –
25 | COCc1ccc(NC(=O)c2c(OC[C@@H](C)OC)n(C3(C)CC3)c3ncnc(N)c23)cc1 [Example 96, (R)-4-amino-N-(4-(methoxymethyl)phenyl)-6-(2-methoxypropoxy)-7-(1-methylcyclopropyl)-7H-pyrrolo[2,3-d]pyrimidine-5-carboxamide] | 71 | –
26 | COCc1ccc(NC(=O)c2c(C3=CCOCC3)n(C3(C)CC3)c3ncnc(N)c23)cc1 [Example 203, 4-amino-6-(3,6-dihydro-2H-pyran-4-yl)-N-(4-(methoxymethyl)phenyl)-7-(1-methylcyclopropyl)-7H-pyrrolo[2,3-d]pyrimidine-5-carboxamide] | 68 | –
27 | COCc1ccc(NC(=O)c2c(C#CC3CCOCC3)n(C3(C)CC3)c3ncnc(N)c23)cc1 [Example 87, 4-amino-N-[4-(methoxymethyl)phenyl]-7-(1-methylcyclopropyl)-6-((tetrahydro-2H-pyran-4-yl)ethynyl)-7H-pyrrolo[2,3-d]pyrimidine-5-carboxamide] | 63 | –
28 | COCc1ccc(NC(=O)c2c(OCC3CCCC3)n(C3(C)CC3)c3ncnc(N)c23)cc1 [Example 140, 4-amino-6-(cyclopentylmethoxy)-N-(4-(methoxymethyl)phenyl)-7-(1-methylcyclopropyl)-7H-pyrrolo[2,3-d] pyrimidine-5-carboxamide] | 52 | –
29 | COCc1ccc(NC(=O)c2c(C#Cc3ccc(Cl)nc3)n(C3(C)CC3)c3ncnc(N)c23)cc1 [Example 120, 4-amino-6-((6-chloropyridin-3-yl)ethynyl)-N-(4-(methoxymethyl)phenyl)-7-(1-methylcyclopropyl)-7H-pyrrolo[2,3-d]pyrimidine-5-carboxamide] | 72 | –
